This note sets out measurements from patent publication US12459951B2, “Compounds that interact with RAS superfamily proteins for treatment of cancers, inflammatory diseases, rasopathies, and fibrotic disease” (SHY Therapeutics, LLC, priority 2022, dated 2025).

Structures are written as SMILES.

Assay [1] deals with BT-20 (expressing wild type KRas). Kind of assay: Proliferation Assay (Cell Viability Assay). It is filed as cell-based. As to conditions: Homo sapiens; BT-20, Breast (TNBC), KRas WT. As for the experimental part:
(§1) Cell lines: these Human tumor-derived cell lines were purchased from American Type Culture Collection. Human tumor-derived pancreatic cancer cell line MiaPaca-2 (expressing KRAS G12C mutant) and Panc-1 (expressing KRas G12D mutant), and Human non-small cell lung cancer (NSCLC) cell line A549 (expressing KRas G12S mutant), and Human melanoma cell line A375 (wild type Kras) were grown in complete DMEM-High Glucose medium. Human tumor-derived pancreatic cancer cell lines SU86.86 (expressing KRas G12D mutant), BxPC3 (expressing wild type K-Ras), and Human non-small cell lung cancer (NSCLC) cell lines NCI-H441 (expressing KRas G12S mutant), NCI-H1975 (expressing wild type KRas), NCI-H358 (expressing KRas G12C mutant), NCI-H1299 (expressing NRas Q61H mutant), and Human colon cancer cell line SW-620 (expressing KRas G12V mutant), Human triple negative breast cancer cell line HCC-1806 (expressing wild type KRas), and Human tumor-derived multiple myeloma cell line MM.1R (expressing wild type KRAS), were grown in RPMI 1640 medium. Human tumor-derived breast cancer cell line BT-549 (expressing wild type KRAS) was grown in RPMI 1640 medium in the presence of 11.8U insulin. Human tumor-derived pancreatic cancer cell line HPAF-II (expressing KRas G12D mutant), Human triple negative breast cancer cell line BT-20 (expressing wild type KRas), and Human colon cancer cell line LS123 (expressing KRas G12S mutant), were grown in EMEM medium. Human tumor-derived pancreatic cancer cell line CF-PAC1 (expressing KRas G12V mutant) was frown in IMDM medium, and Human colon cancer cell line HT29 (expressing wild type KRas) was grown in McCoy's 5A medium. The colon cancer cell line GP2d (expressing KRas G12D mutant) was purchased from MilliporeSigma and grown in DMEM-High Glucose medium. All cell lines were supplemented with penicillin (100 U/mL), streptomycin (100 μg/mL), and 10% heat-inactivated FBS at 37° C. in a humidified incubator with 5% CO2.
(§2) Method: Cells were plated at 2000 to 5000 cells/well density in 96-wells plate and cultured overnight. Small molecules that were tested were added to the cells in the final concentration of 10 μM in the presence of 0.3% DMSO and 10% FBS, and incubated for 2-4 days at 37° C. in a humidified incubator with 5% CO2. For IC50 value determination, serial dilutions of compounds were added to cells under the same conditions.
(§3) Assay: At the end of the incubation period, cell viability was determined using the CellTiter 96® Aqueous One Solution Cell Proliferation Assay according to manufacturer specifications (Promega, Madison, WI). The percentage of small molecules inhibition of cellular proliferation was calculated from raw data.

Assay [2] relates to BxPC3 (expressing wild type K-Ras). Kind of assay: Proliferation Assay (Cell Viability Assay). It is filed as cell-based. As to conditions: Homo sapiens, BXPC-3; BxPC3, pancreatic, KRas WT. As for the experimental part: as §1, §2, §3
Assay [3] concerns CF-PAC1 (expressing KRas G12V mutant). Kind of assay: Proliferation Assay (Cell Viability Assay). The format is cell-based. As to conditions: Homo sapiens, CFPAC-1, CF-PAC1, pancreatic. As for the experimental part: as §1, §2, §3
Assay [4] has as its system HCC-1806 (expressing wild type KRas). Nature of the assay: Proliferation Assay (Cell Viability Assay). The format is cell-based. As to conditions: Homo sapiens, HCC1806; HCC-1806, Breast (TNBC), KRas WT. As for the experimental part: as §1, §2, §3
The test system of assay [5] is HPAF-II (expressing KRas G12D mutant). Kind of assay: Proliferation Assay (Cell Viability Assay). The format is cell-based. As to conditions: Homo sapiens, pancreatic. As for the experimental part: as §1, §2, §3
Assay [6] concerns HT29 (expressing wild type KRas). Nature of the assay: Proliferation Assay (Cell Viability Assay). The format is cell-based. As to conditions: Homo sapiens, HT-29; HT29, colon, KRas WT. The protocol: as §1, §2, §3
Assay [7] deals with LS123 (expressing KRas G12S mutant). Kind of assay: Proliferation Assay (Cell Viability Assay). It is filed as cell-based. As to conditions: Homo sapiens, LS-123, colon. As for the experimental part:
as §1, §2, §3

Assay [8] has as its system NCI-H1299 (expressing NRas Q61H mutant). Kind of assay: Proliferation Assay (Cell Viability Assay). The format is cell-based. As to conditions: Homo sapiens; NCI-H1299, NSCLC, Q61H (N-Ras). As for the experimental part:
as §1, §2, §3

In assay [9] the test system is NCI-H1975 (expressing wild type KRas). Kind of assay: Proliferation Assay (Cell Viability Assay). As to conditions: Homo sapiens; NCI-H1975, NSCLC, KRas WT. It is filed as cell-based. The protocol: as §1, §2, §3
The test system of assay [10] is NCI-H441 (expressing KRas G12S mutant). Kind of assay: Proliferation Assay (Cell Viability Assay). It is filed as cell-based. As to conditions: Homo sapiens, NCI-H441, NSCLC. The protocol:
as §1, §2, §3

Assay [11] concerns SU86.86 (expressing KRas G12D mutant). Kind of assay: Proliferation Assay (Cell Viability Assay). It is filed as cell-based. As to conditions: Homo sapiens, SU.86.86, SU86.86, pancreatic. As for the experimental part:
as §1, §2, §3

The subject of assay [12] is A549 (expressing KRas G12S mutant). Nature of the assay: Proliferation Assay (Cell Viability Assay). The format is cell-based. As to conditions: Homo sapiens, A549, NSCLC. The protocol:
(§4) Cell lines: Human tumor-derived cell lines were purchased from American Type Culture Collection. Human tumor-derived pancreatic cancer cell line MiaPaca-2 (expressing KRAS G12C mutant) and Panc-1 (expressing KRas G12D mutant), and Human non-small cell lung cancer (NSCLC) cell line A549 (expressing KRas G12S mutant) were grown in complete DMEM-High Glucose medium. Human colon cancer cell line SW-620 (expressing KRas G12V mutant) was grown in RPMI 1640 medium. All cell lines were supplemented with penicillin (100 U/mL), streptomycin (100 μg/mL), and 10% heat-inactivated FBS at 37° C. in a humidified incubator with 5% CO2.
(§5) Method: Cells were plated at 2000 to 5000 cells/well density in 96-wells plate and cultured overnight. Small molecules to be tested were added to the cells in the final concentration of 10 μM in the presence of 0.3% DMSO and 10% FBS and incubated for 2-4 days at 37° C. in a humidified incubator with 5% CO2. For IC50 value determination, serial dilutions of compounds were added to cells under the same conditions.
as §3, §1, §2

The subject of assay [13] is Panc-1 (expressing KRas G12D mutant). Kind of assay: Proliferation Assay (Cell Viability Assay). As to conditions: Homo sapiens, Panc1, pancreatic. It is filed as cell-based. The protocol:
as §4, §5, §3, §1, §2

The subject of assay [14] is SW-620 (expressing KRas G12V mutant). Nature of the assay: Proliferation Assay (Cell Viability Assay). As to conditions: Homo sapiens, SW-620, colon. It is filed as cell-based. The protocol:
as §4, §5, §3, §1, §2

Assay [15] has as its system active/cleaved caspase 9. Kind of assay: Cell-based caspase activation assay (western blot). On the set-up: species or system human. A general note: A western blot detects proteins with antibodies after separation by electrophoresis.

In the case of `COc1cc(Nc2nc(-c3nccn3C)nn3cc(-c4ccn(C(C)C)n4)c(C)c23)ncn1` [Compound 6, 6-(1-Isopropyl-1H-pyrazol-3-yl)-N-(6-methoxypyrimidin-4-yl)-5-methyl-2-(1-methyl-1H-imidazol-2-yl)pyrrolo[2,1-f][1,2,4]triazin-4-amine], the IC50 – broadly, the midpoint of a concentration-inhibition curve – in assay [1] is below 150 nM; in [2], below 150 nM; in assay [3] it was below 150 nM; in assay [4] it was 510 to 1000 nM; in [5] it was below 150 nM; in assay [6] it was below 150 nM. Moreover, the IC50 in assay [7] was below 150 nM; in assay [8], below 150 nM; in assay [9] it was 510 to 1000 nM; in assay [10], 510 to 1000 nM; in [11], 150 to 500 nM; in assay [12], 510 to 1000 nM. Moreover, the 50% inhibitory concentration (IC50) in [13] is below 150 nM; in [14], 150 to 500 nM.

Consider `Cc1c(-c2ccn(C)n2)cn2nc(-c3nccn3C)nc(Nc3cc4n(n3)CCO4)c12` [Compound 124, N-(5-Methyl-2-(1-methyl-1H-imidazol-2-yl)-6-(1-methyl-1H-pyrazol-3-yl)pyrrolo[2,1-f][1,2,4]triazin-4-yl)-2,3-dihydropyrazolo[5,1-b]oxazol-6-amine], for which the “Caspase 9 activation” value in assay [15] (HCC1806, after 48 hours) is on record as “yes”; in [15] (NCI-H358, after 48 hours), “yes”.
